Data as given in patent publication US20240409934A1, “FOXO1-TARGETED THERAPY FOR THE TREATMENT OF CANCER” (BOARD OF REGENTS, THE UNIVERSITY OF TEXAS SYSTEM, priority 2021, published 2024).

What was measured:
Type in all cases: cell-based
LN229 [1] = test: Western blot for cleaved caspase 3
Procedure: (§1) Total protein was obtained from indicated cells by rinsing cells with 1×PBS (phosphate buffered saline) followed by directed lysis in 2× sample buffer (125 mM Tris-HCL at pH 6.8, 2% sodium dodecyl sulfate (SDS), 10% 2-mercaptoethanol, 20% glycerol, 0.05% bromophenol blue, 8 M urea); 2× sample buffer was added to each well and cells scraped with a cell scraper. The lysate was collected from each well, placed into a 1.5 mL microcentrifuge tube and heated for 10 minutes at 95° C. in a dry-bath heat block. Protein lysates were separated by sodium dodecyl sulfate-polyacrylamide gel electrophoresis (SDS-PAGE) at 100V for 1 hour. […] Data was analyzed with NIH Image J. Antibodies were obtained from Cell Signaling Technologies (Danvers, MA): Cleaved Caspase 3 antibody (cat: 94530). […]

BT549 = test: Western blot for cleaved caspase 3
Procedure: as §1

HCT116 = test: Colony formation assay (crystal violet); conditions: treated five days
LN229 cells = test: Propidium iodide / FITC-Annexin V flow cytometry; conditions: 1 μM, 72 hours
Procedure: (§2) FIGS. 3A-3D: FOXO1 Inhibitor Treatment led to Apoptosis. (FIGS. 3A-3C) LN229 and BT549 cells were treated with 1 μM AS1842856 and were stained with propidium iodide and FITC-Annexin V followed by flow cytometric analyses. […] (FIG. 3D) Western blot analyses were performed with BT549 and LN229 samples that were treated with AS1842856. Both cell lines had increased caspase 3 cleavage.
(§3) FOXO1 inhibition led to apoptosis induction based on Caspase 3 cleavage and flow cytometric analyses. To clarify the impact of FOXO1 on BBC and GBM cell viability, BT549 and LN229 cells were treated with AS1842856 for 48 and 72 hours respectively.

BT549 cells = test: Propidium iodide / FITC-Annexin V flow cytometry; conditions: 1 μM, 48 hours
Procedure: as §2, §3

[2] = test system: HCT116 colon cancer cells; test: Gene expression by qRT-PCR (TUBB reference); conditions: 48 hours
MDA-MB-468 = test: Colony formation assay (crystal violet); conditions: treated five days
BT549 CSCs = test: Gene expression by qRT-PCR in cancer stem cells; conditions: 1 μM for 48 hours
Procedure: (§4) Cell culture and drug treatments. Cell lines were obtained from ATCC (American Type Culture Collection, Manassas, VA) and grown under standard conditions (5% CO2, 10% FBS (fetal bovine serum), with 5% antifungal/antibacterial). Cell lines were tested for Mycoplasma using the MycoAlert Mycoplasma Detection Kit (Lonza, Basel Switzerland, cat: LT07-218); all experiments were done with mycoplasma negative cells. U87MG cells were propagated in MEM (Minimal Essential Medium). BT549 and DBTRG cells were propagated in RPMI (Roswell Park Memorial Institute 1640 Medium). LN18, U118MG, A172 and LN229 cells were propagated in DMEM (Dulbecco's Modified Eagle Medium). Neurosphere/cancer stem cell cultures for U87MG and BT549 cell lines were plated with 40,000 cells per mL in 3D Tumorsphere Medium XF (Sigma cat: C-28070, Burlington, MA). BT549 cancer stem cell cultures were supplemented with 1XB27 XenoFree CTS (Gibco/Thermo Fisher Waltham, MA, USA). AS1842856 was purchased from Calbiochem (Danvers, MA) and utilized at 200 nM, 500 nM and 1 μM final concentrations as indicated. […] Samples (cDNAs) were analyzed using (Power SYBR Green Master Mix, Applied Biosystems, Foster City, CA) and the ABI Step-One Real-time system (Carlsbad, CA). Expression levels were normalized to Beta-Tubulin, TUBB in gene expression experiments and calculated using 2-4ACT method (Livak et al., 2001). […]

U87MG CSCs = test: Gene expression by qRT-PCR in cancer stem cells; conditions: 1 μM for 48 hours
Procedure: as §4

U87MG cells = test: Gene expression by qRT-PCR (TUBB reference)
Procedure: (§5) Cell culture and drug treatments. Cell lines were obtained from ATCC (American Type Culture Collection, Manassas, VA) and grown under standard conditions (5% CO2, 10% FBS (fetal bovine serum), with 5% antifungal/antibacterial). Cell lines were tested for Mycoplasma using the MycoAlert Mycoplasma Detection Kit (Lonza, Basel Switzerland, cat: LT07-218); all experiments were done with mycoplasma negative cells. U87MG cells were propagated in MEM (Minimal Essential Medium). BT549 and DBTRG cells were propagated in RPMI (Roswell Park Memorial Institute 1640 Medium). LN18, U118MG, A172 and LN229 cells were propagated in DMEM (Dulbecco's Modified Eagle Medium). Neurosphere/cancer stem cell cultures for U87MG and BT549 cell lines were plated with 40,000 cells per mL in 3D Tumorsphere Medium XF (Sigma cat: C-28070, Burlington, MA). BT549 cancer stem cell cultures were supplemented with 1XB27 XenoFree CTS (Gibco/Thermo Fisher Waltham, MA, USA). AS1842856 was purchased from Calbiochem (Danvers, MA) and utilized at 200 nM, 500 nM and 1 μM final concentrations as indicated. AS1708727 was purchased from MedChem Express (Monmouth Junction, NJ) and was used at 0.5 μM, 1.0 µM and 2.0 μM concentrations. 5-aza-2′-deoxycytidine (5-AZA) was purchased from Millipore/Sigma (Burlington, MA) and utilized at a final concentration of 3 μM. Total RNA was prepared using the Qiagen RNeasy kit (Hilden, Germany), which was then used to generate cDNA using Superscript Reverse Transcriptase II (Invitrogen, Carlsbad, CA). Samples (cDNAs) were analyzed using (Power SYBR Green Master Mix, Applied Biosystems, Foster City, CA) and the ABI Step-One Real-time system (Carlsbad, CA). Expression levels were normalized to Beta-Tubulin, TUBB in gene expression experiments and calculated using 2-4ACT method (Livak et al., 2001). Primer sequences are detailed in Table 1.

LN229 [3] = test: Gene expression by qRT-PCR (TUBB reference); conditions: 1 μM for 48 hours
Procedure: as §5

LN18 = test: Gene expression by qRT-PCR (TUBB reference); conditions: 1 μM for 48 hours
Procedure: as §5

A172 = test: Gene expression by qRT-PCR (TUBB reference); conditions: 1 μM for 48 hours
Procedure: as §5

DBTRG = test: Gene expression by qRT-PCR (TUBB reference); conditions: 1 μM for 48 hours
Procedure: as §5

Structure (SMILES): CCn1cc(C(=O)O)c(=O)c2c(N)c(F)c(NC3CCCCC3)cc21 [AS1842856, 5-Amino-7-(cyclohexylamino)-1-ethyl-6-fluoro-4-oxo-1,4-dihydroquinoline-3-carboxylic acid]
- caspase 3 cleavage (LN229 [1]): positive for caspase 3 cleavage
- caspase 3 cleavage (BT549): positive for caspase 3 cleavage
- colony formation (HCT116): Significantly reduced colony formation
- Annexin V-FITC and/or PI staining (indicators of apoptosis) (LN229 cells): positive for Annexin V-FITC and/or PI
- Annexin V-FITC and/or PI staining (indicators of apoptosis) (BT549 cells): positive for Annexin V-FITC and/or PI
- FAS gene expression [2]: induced the FAS gene
- colony formation (MDA-MB-468): fewer cells with 200 nM drug treatment with further reductions using 500 nM and 1 μM drug
- FAS and BIM expression (BT549 CSCs): FAS and BIM were induced
- FAS and BIM expression (U87MG CSCs): FAS and BIM were induced
- FAS expression (U87MG cells): induced
- apoptotic genes FAS and/or BIM expression (U87MG cells; 1 μM for 48 hours): induced apoptotic genes FAS and/or BIM
- apoptotic genes FAS and/or BIM expression (LN229 [3]): induced apoptotic genes FAS and/or BIM
- apoptotic genes FAS and/or BIM expression (LN18): induced apoptotic genes FAS and/or BIM
- apoptotic genes FAS and/or BIM expression (A172): induced apoptotic genes FAS and/or BIM
- apoptotic genes FAS and/or BIM expression (DBTRG): induced apoptotic genes FAS and/or BIM
